Experimental findings from US20250197406A1, “INDAZOLES AS HEMATOPOIETIC PROGENITOR KINASE 1 (HPK1) INHIBITORS AND METHODS FOR USING SAME” (1ST Biotherapeutics, Inc., priority 2022, published 2025) are described below.

By IC50 is commonly meant the concentration needed to halve the response being measured.

This test deals with recombinant human HPK1 (Homo sapiens (Human), UniProt Q92918). Nature of the test: HPK1 kinase assay (Promega ADP-Glo kinase assay). It counts as biochemical. Conditions: In vitro activity against HPK1, 5 ng HPK1, MBP substrate, ATP 25 μM, 30° C. 40 minutes. An outline of the steps: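 ADP-Glo luminescence assay with 5 ng recombinant human HPK1, MBP substrate and ATP (added as 25 µM solution) in Tris pH 7.5, 20 mM MgCl2, BSA, DTT, 0.5% DMSO. Reaction ran 40 min at 30 °C. IC50 was fitted from percent inhibition over an inhibitor concentration range.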
recombinant human HPK1, sequence (Q92918 whole entry): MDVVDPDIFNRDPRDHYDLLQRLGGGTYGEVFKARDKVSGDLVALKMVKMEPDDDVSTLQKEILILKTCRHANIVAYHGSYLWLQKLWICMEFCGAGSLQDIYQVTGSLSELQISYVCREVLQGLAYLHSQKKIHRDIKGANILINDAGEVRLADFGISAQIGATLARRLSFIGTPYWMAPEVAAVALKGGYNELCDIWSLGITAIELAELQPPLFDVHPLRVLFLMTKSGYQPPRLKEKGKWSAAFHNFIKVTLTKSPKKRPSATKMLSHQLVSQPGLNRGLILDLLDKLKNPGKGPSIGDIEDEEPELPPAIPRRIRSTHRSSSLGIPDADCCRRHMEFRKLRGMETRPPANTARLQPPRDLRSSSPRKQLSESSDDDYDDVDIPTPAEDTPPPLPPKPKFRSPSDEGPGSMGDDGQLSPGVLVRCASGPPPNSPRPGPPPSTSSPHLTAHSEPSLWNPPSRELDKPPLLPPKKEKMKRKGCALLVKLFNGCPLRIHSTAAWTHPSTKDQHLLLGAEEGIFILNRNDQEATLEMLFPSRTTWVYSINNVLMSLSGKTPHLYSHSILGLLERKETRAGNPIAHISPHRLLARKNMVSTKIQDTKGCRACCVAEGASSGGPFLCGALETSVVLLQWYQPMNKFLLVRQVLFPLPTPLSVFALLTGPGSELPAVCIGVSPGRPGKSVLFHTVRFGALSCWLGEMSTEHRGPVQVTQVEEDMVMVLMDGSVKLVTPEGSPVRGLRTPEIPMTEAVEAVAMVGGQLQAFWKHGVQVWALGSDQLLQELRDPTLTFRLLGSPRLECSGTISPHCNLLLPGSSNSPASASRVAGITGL
In general terms: ADP-Glo first removes unused ATP, then detects ADP through luciferase.
For the molecule `CCC(=O)Nc1cn2cc(-c3c(OC)c(F)c(NC(C)C)c4[nH]ncc34)ncc2n1` [Example 162, N-(6-(6-fluoro-7-(isopropylamino)-5-methoxy-1H-indazol-4-yl)imidazo[1,2-a]pyrazin-2-yl)propionamide], the IC50 is less than 100 nM. As for `CC(=O)Nc1cn2cc(-c3c(Cl)c(F)c(C(C)N4CCC(O)C4)c4[nH]ncc34)ncc2n1` (stereo not drawn) [Example 163, N-(6-(5-chloro-6-fluoro-7-(1-(3-hydroxypyrrolidin-1-yl)ethyl)-1H-indazol-4-yl)imidazo[1,2-a]pyrazin-2-yl)acetamide], the IC50 lay within 501 to 1000 nM. With `COc1c(F)c(NC(C)C)c2[nH]ncc2c1-c1cn2cc(NC(=O)[C@@H]3C[C@@H]3C#N)nc2cn1` [Example 164, (1R,2S)-2-cyano-N-(6-(6-fluoro-7-(isopropylamino)-5-methoxy-1H-indazol-4-yl)imidazo[1,2-a]pyrazin-2-yl)cyclopropane-1-carboxamide], the half-inhibitory concentration (IC50) was less than 100 nM.
